# According to ChEMBL document CHEMBL4373734, “Overcoming imatinib resistance in chronic myelogenous leukemia cells using non-cytotoxic cell death modulators” (Eur J Med Chem, 2020):
# Activity calls are given as the source filed them. The rule behind the calls is not given here.
# Biological target: T1, Peroxisome proliferator-activated receptor gamma (Homo sapiens) (UniProt P37231)
# T1 sequence (whole entry): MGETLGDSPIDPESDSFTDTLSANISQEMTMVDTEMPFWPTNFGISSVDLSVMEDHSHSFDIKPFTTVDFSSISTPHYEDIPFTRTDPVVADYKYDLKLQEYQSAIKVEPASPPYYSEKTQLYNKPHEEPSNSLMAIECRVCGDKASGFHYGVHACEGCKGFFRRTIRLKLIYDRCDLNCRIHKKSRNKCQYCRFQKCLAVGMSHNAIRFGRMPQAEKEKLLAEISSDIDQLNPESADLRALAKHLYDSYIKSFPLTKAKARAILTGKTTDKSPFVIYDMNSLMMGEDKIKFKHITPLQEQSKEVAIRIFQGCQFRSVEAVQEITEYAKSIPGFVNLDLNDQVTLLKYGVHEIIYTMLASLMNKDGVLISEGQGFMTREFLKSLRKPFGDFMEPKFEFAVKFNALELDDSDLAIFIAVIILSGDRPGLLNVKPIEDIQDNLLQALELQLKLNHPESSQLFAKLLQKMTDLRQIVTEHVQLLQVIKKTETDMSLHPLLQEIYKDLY
# Test: Transactivation of Gal4-fused human PPARgamma transfected in COS7 cells co-transfected with pGAL5-TK-pGL3 and pRennilla-CMV assessed as maximum intrinsic activation at 10 uM incubated for 39 hrs by dual luciferase reporter assay relative to pioglitazone
# Type: cell-based
# Settings: not given
row,Structure (SMILES),Intrinsic activity [%]
1,CCCc1nc2c(N)cccc2n1Cc1ccc(-c2ccccc2C(=O)O)cc1,15.7
2,CCCc1nc2c(O)cccc2n1Cc1ccc(-c2ccccc2C(N)=O)cc1,20.5
3,CCCc1nc2c([N+](=O)[O-])cccc2n1Cc1ccc(-c2ccccc2C(N)=O)cc1,7.15
4,CCCc1nc2c([N+](=O)[O-])cccc2n1Cc1ccc(-c2ccccc2C(=O)O)cc1,0.42
5,CCCc1nc2c(Cl)cccc2n1Cc1ccc(-c2ccccc2C(N)=O)cc1,21.1

# System: not listed separately
# Test: Solubility of compound in water at >20 uM
# Type: physicochemical
# Settings: buffer
row,Structure (SMILES),solubility
1,CCCc1nc2c(O)cccc2n1Cc1ccc(-c2ccccc2C(N)=O)cc1,Insoluble
2,CCCc1nc2c([N+](=O)[O-])cccc2n1Cc1ccc(-c2ccccc2C(N)=O)cc1,Insoluble
3,CCCc1nc2c(Cl)cccc2n1Cc1ccc(-c2ccccc2C(N)=O)cc1,Insoluble

# Biological target: T1, Peroxisome proliferator-activated receptor gamma (Homo sapiens)
# Test: Transactivation of Gal4-fused human PPARgamma transfected in COS7 cells co-transfected with pGAL5-TK-pGL3 and pRennilla-CMV assessed as maximum intrinsic activation at 20 uM incubated for 39 hrs by dual luciferase reporter assay
# Type: cell-based
# Settings: not given
row,Structure (SMILES),Intrinsic activity
1,CCCc1nc2c(O)cccc2n1Cc1ccc(-c2ccccc2C(N)=O)cc1,inactive
2,CCCc1nc2c([N+](=O)[O-])cccc2n1Cc1ccc(-c2ccccc2C(N)=O)cc1,inactive
3,CCCc1nc2c(Cl)cccc2n1Cc1ccc(-c2ccccc2C(N)=O)cc1,inactive

# System: K562-IMA[r]
# Test: Induction of sensitization to imatinib-induced cytotoxicity in imatinib-resistant human K562-IMA[r] cells assessed as induction of cell death at 10 uM after 72 hrs in presence of 1 uM imatinib by propidium iodide/Triton-X100 dye based FACS analysis
# Type: functional
# Settings: not given
row,Structure (SMILES),Activity
1,CCCc1nc2c(N)cccc2n1Cc1ccc(-c2ccccc2C(=O)O)cc1,Active
2,CCCc1nc2c(O)cccc2n1Cc1ccc(-c2ccccc2C(N)=O)cc1,Active
3,CCCc1nc2c([N+](=O)[O-])cccc2n1Cc1ccc(-c2ccccc2C(N)=O)cc1,Active
4,CCCc1nc2c([N+](=O)[O-])cccc2n1Cc1ccc(-c2ccccc2C(=O)O)cc1,Active

# System: K562-IMA[r]
# Test: Cytotoxicity against imatinib-resistant human K562-IMA[r] cells assessed as induction of cell death at 10 uM after 72 hrs by propidium iodide/Triton-X100 dye based FACS analysis relative to control
# Settings: not given
row,Structure (SMILES),Activity [%]
1,CCCc1nc2c(Cl)cccc2n1Cc1ccc(-c2ccccc2C(N)=O)cc1,< 20

# System: K562-IMA[r]
# Test: Cytotoxicity against imatinib-resistant human K562-IMA[r] cells assessed as cell death at 10 uM after 72 hrs by propidium iodide/Triton-X100 dye based FACS analysis
# Settings: not given
row,Structure (SMILES),Activity
1,CCCc1nc2c(N)cccc2n1Cc1ccc(-c2ccccc2C(=O)O)cc1,Non-Toxic
2,CCCc1nc2c(O)cccc2n1Cc1ccc(-c2ccccc2C(N)=O)cc1,Non-Toxic
3,CCCc1nc2c([N+](=O)[O-])cccc2n1Cc1ccc(-c2ccccc2C(N)=O)cc1,Non-Toxic
4,CCCc1nc2c([N+](=O)[O-])cccc2n1Cc1ccc(-c2ccccc2C(=O)O)cc1,Non-Toxic

# System: K562-IMA[r]
# Test: Induction of sensitization to imatinib induced cytotoxicity in imatinib-resistant human K562-IMA[r] cells assessed as cell death up to 2.5 uM measured after 72 hrs in presence of 1 uM imatinib by propidium iodide/Triton-X100 dye based FACS analysis
# Type: functional
# Settings: not given
row,Structure (SMILES),Activity
1,CCCc1nc2c(Cl)cccc2n1Cc1ccc(-c2ccccc2C(N)=O)cc1,inactive

# System: K562-IMA[r]
# Test: Induction of sensitization to imatinib-induced cytotoxicity in imatinib-resistant human K562-IMA[r] cells assessed as gain in cell death rate at 5 uM measured after 72 hrs in presence of 1 uM imatinib by propidium iodide/Triton-X100 dye based FACS analysis relative to imatinib-treated control
# Type: functional
# Settings: not given
row,Structure (SMILES),Activity [%]
1,CCCc1nc2c(Cl)cccc2n1Cc1ccc(-c2ccccc2C(N)=O)cc1,15.3

# System: not listed separately
# Test: Cytotoxicity against human HS5 cells assessed as cell death at 10 uM after 72 hrs by propidium iodide/Triton-X100 dye based FACS analysis
# Settings: not given
row,Structure (SMILES),Activity
1,CCCc1nc2c(N)cccc2n1Cc1ccc(-c2ccccc2C(=O)O)cc1,Non-Toxic
2,CCCc1nc2c(O)cccc2n1Cc1ccc(-c2ccccc2C(N)=O)cc1,Non-Toxic
3,CCCc1nc2c([N+](=O)[O-])cccc2n1Cc1ccc(-c2ccccc2C(N)=O)cc1,Non-Toxic
4,CCCc1nc2c([N+](=O)[O-])cccc2n1Cc1ccc(-c2ccccc2C(=O)O)cc1,Non-Toxic
5,CCCc1nc2c(Cl)cccc2n1Cc1ccc(-c2ccccc2C(N)=O)cc1,Non-Toxic

# System: K562
# Test: Cytotoxicity against human K562 cells assessed as cell death at 10 uM after 72 hrs by propidium iodide/Triton-X100 dye based FACS analysis
# Settings: k562, 72 h
row,Structure (SMILES),Activity
1,CCCc1nc2c(N)cccc2n1Cc1ccc(-c2ccccc2C(=O)O)cc1,Non-Toxic
2,CCCc1nc2c(O)cccc2n1Cc1ccc(-c2ccccc2C(N)=O)cc1,Non-Toxic
3,CCCc1nc2c([N+](=O)[O-])cccc2n1Cc1ccc(-c2ccccc2C(N)=O)cc1,Non-Toxic
4,CCCc1nc2c([N+](=O)[O-])cccc2n1Cc1ccc(-c2ccccc2C(=O)O)cc1,Non-Toxic
5,CCCc1nc2c(Cl)cccc2n1Cc1ccc(-c2ccccc2C(N)=O)cc1,Non-Toxic

# System: COS-7
# Test: Cytotoxicity against African green monkey COS7 cells assessed as effect on cell metabolic activity at 20 uM after 72 hrs by MTT assay
# Type: ADME, cell-based
# Settings: chlorocebus aethiops, cos-7, 72 h
row,Structure (SMILES),Activity
1,CCCc1nc2c(N)cccc2n1Cc1ccc(-c2ccccc2C(=O)O)cc1,Non-Toxic
2,CCCc1nc2c(O)cccc2n1Cc1ccc(-c2ccccc2C(N)=O)cc1,Non-Toxic
3,CCCc1nc2c([N+](=O)[O-])cccc2n1Cc1ccc(-c2ccccc2C(N)=O)cc1,Non-Toxic
4,CCCc1nc2c([N+](=O)[O-])cccc2n1Cc1ccc(-c2ccccc2C(=O)O)cc1,Non-Toxic
5,CCCc1nc2c(Cl)cccc2n1Cc1ccc(-c2ccccc2C(N)=O)cc1,Non-Toxic

# System: K562-IMA[r]
# Test: Induction of sensitization to imatinib-induced cytotoxicity in imatinib-resistant human K562-IMA[r] cells assessed as induction of cell death at 10 uM after 72 hrs in presence of 1 uM imatinib by propidium iodide/Triton-X100 dye based FACS analysis (reference value: 15%)
# Type: functional
# Settings: not given
row,Structure (SMILES),Activity
1,CCCc1nc2c(Cl)cccc2n1Cc1ccc(-c2ccccc2C(N)=O)cc1,62 - 78%

# System: K562-IMA[r]
# Test: Induction of sensitization to imatinib-induced cytotoxicity in imatinib-resistant human K562-IMA[r] cells assessed as induction of cell death measured after 72 hrs in presence of 1 uM imatinib by propidium iodide/Triton-X100 dye based FACS analysis
# Type: functional
# Settings: not given
row,Structure (SMILES),Activity
1,CCCc1nc2c(Cl)cccc2n1Cc1ccc(-c2ccccc2C(N)=O)cc1,Dose-dependent effect

# System: not listed separately
# Test: Solubility of compound in DMSO at 10 uM by microscopic analysis
# Type: physicochemical
# Settings: not given
row,Structure (SMILES),solubility
1,CCCc1nc2c(N)cccc2n1Cc1ccc(-c2ccccc2C(=O)O)cc1,Soluble
2,CCCc1nc2c(O)cccc2n1Cc1ccc(-c2ccccc2C(N)=O)cc1,Soluble
3,CCCc1nc2c([N+](=O)[O-])cccc2n1Cc1ccc(-c2ccccc2C(N)=O)cc1,Soluble
4,CCCc1nc2c([N+](=O)[O-])cccc2n1Cc1ccc(-c2ccccc2C(=O)O)cc1,Soluble
5,CCCc1nc2c(Cl)cccc2n1Cc1ccc(-c2ccccc2C(N)=O)cc1,Soluble
